± gives the expanded uncertainty stated by the source.
Key:
[1] = refractive index (Na D-line) (dimensionless); conditions: 293.15 K; 101.33 kPa; Liquid; Standard Abbe refractometry
[2] = 293.15 K; 101.33 kPa; Liquid

Row | Compound | refractive index [1] | mass density [2] [kg/m3]
1 | Cc1ccccc1 [toluene] | 1.4953 ± 0.0007 | 862.2 ± 0.5
2 | CC(=O)O [acetic acid] | 1.3713 ± 0.0007 | 1049.4 ± 0.3
3 | ClCCCl [1,2-dichloroethane] | 1.4445 ± 0.0007 | 1251 ± 1

Reference: the NIST ThermoML archive (doi:10.1016/j.jct.2006.12.003)
